Where a name gives a salt, the structure may show the parent alone. Read-outs that look alike come from different tables or passages of the source.
Assays:
IL-23 (p19/p40) = test: IL23-p19 ELISA, Dendritic, LPS (compound screening using DC cells); assay type: cell-based, Human; details: PBMC-derived DC cells, IFNγ primed, LPS 1 μg/ml, 18 hours, 10 pt, read-out: IL23-p19 ELISA, Dendritic, LPS, 10 pt, EC50
Summary of the method: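 Human PBMC-derived dendritic cells (7 d GM-CSF 100 ng/ml + IL-4 20 ng/ml), primed 24 h with IFNγ 50 ng/ml, pre-incubated 1 h with compound, then stimulated 18 h with LPS 1 μg/ml. Supernatant IL-23 measured by p19-capture/p40-detection chemiluminescent ELISA; CellTiter Glo checks cytotoxicity.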

IL-23p19 = test: LPS induced IL23p19 in THP-1 cells (with IFNγ primed) assay; assay type: cell-based, Human; details: THP-1 cells, IFNγ primed, LPS 1 ug/mL, 18 hours, 10 pt, read-out: IL23-p19 ELISA, THP1-IFNy, LPS, 10 pt EC50
Summary of the method: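 THP-1 cells primed ~18 h with IFNγ (50 ng/mL), pre-incubated 1 h with compound at 37 °C, then stimulated 18 h with LPS (1 ug/mL final). Supernatant IL-23p19 measured by sandwich ELISA with chemiluminescent read-out; EC50 from curve fitting. Toxicity checked on the remaining cells by Cell Titer Glo.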

| EC50 (IL-23 (p19/p40); Homo sapiens, 18 h) [µM] | EC50 (IL-23p19; Homo sapiens, THP-1, 18 h) [µM] | Structure (SMILES) | further results |
| --- | --- | --- | --- |
| – | – | CCOCCn1cc(NC(=O)c2csc(-c3cn[nH]c3)n2)c(-c2ccccn2)n1 [II-18, N-(1-(2-ethoxyethyl)-3-(pyridin-2-yl)-1H-pyrazol-4-yl)-2-(1H-pyrazol-4-yl)thiazole-4-carboxamide, formic acid salt] | EC50 (IL-23 (p19/p40); formic acid salt): 0.0314 µM; EC50 (IL-23p19; formic acid salt): 0.301 µM |
| 0.0502 | 0.0278 | O=C(Nc1cn(C2CCOC2)nc1-c1ccccn1)c1csc(-c2cn[nH]c2)n1 (centres unmarked) [II-43, 2-(1H-pyrazol-4-yl)-N-(3-(pyridin-2-yl)-1-(tetrahydrofuran-3-yl)-1H-pyrazol-4-yl)thiazole-4-carboxamide formic acid salt] | – |
| 0.0489 | 0.0373 | O=C(Nc1cn([C@H]2C[C@@H](O)C2)nc1-c1ncccc1F)c1csc(-c2cn[nH]c2)n1 [II-65, N-(3-(3-fluoropyridin-2-yl)-1-((1s,3s)-3-hydroxycyclobutyl)-1H-pyrazol-4-yl)-2-(1H-pyrazol-4-yl)thiazole-4-carboxamide] | – |
| 0.0156 | 0.018 | CCCC(=O)N1CC(n2cc(NC(=O)c3ccc(-c4cn[nH]c4)o3)c(-c3ccccn3)n2)C1 [Compound I-99, N-[1-{1-Butyrylazetidin-3-yl}-3-(pyridine-2-yl)-1H-pyrazol-4-yl]-5-(1H-pyrazol-4-yl)furan-2-carboxamide, formate salt] | – |
| 0.0221 | 0.104 | COc1ccc(-c2nn(C)cc2NC(=O)c2ccc(-c3cn[nH]c3)o2)nc1 [Compound I-109, N-(3-(5-methoxypyridin-2-yl)-1-methyl-1H-pyrazol-4-yl)-5-(1H-pyrazol-4-yl)furan-2-carboxamide] | – |
| 0.218 | 0.176 | CCO[C@H]1C[C@@H](n2cc(NC(=O)c3csc(-c4cn[nH]c4)n3)c(-c3cccc(C(F)(F)F)n3)n2)C1 [II-90, N-(1-((1,3-cis)-3-ethoxycyclobutyl)-3-(6-(trifluoromethyl)pyridin-2-yl)-1H-pyrazol-4-yl)-2-(1H-pyrazol-4-yl)thiazole-4-carboxamide] | – |
| 0.0152 | 0.0758 | C[C@]1(O)C[C@H](n2cc(NC(=O)c3csc(-c4cn[nH]c4)n3)c(-c3ccccn3)n2)C1 [II-79, N-(1-((1r,3r)-3-hydroxy-3-methylcyclobutyl)-3-(pyridin-2-yl)-1H-pyrazol-4-yl)-2-(1H-pyrazol-4-yl)thiazole-4-carboxamide] | – |
| 0.41 | 0.042 | CCO[C@H]1CC[C@H](n2cc(NC(=O)c3csc(-c4cn[nH]c4)n3)c(-c3ncccc3F)n2)CC1 [II-169, N-(1-((trans)-4-ethoxycyclohexyl)-3-(3-fluoropyridin-2-yl)-1H-pyrazol-4-yl)-2-(1H-pyrazol-4-yl)thiazole-4-carboxamide] | – |
| – | – | CCOCCn1cc(NC(=O)c2ccc(-c3cn[nH]c3)o2)c(-c2nccs2)n1 [Compound I-119, N-(1-(2-ethoxyethyl)-3-(thiazol-2-yl)-1H-pyrazol-4-yl)-5-(1H-pyrazol-4-yl)furan-2-carboxamide] | EC50 (IL-23 (p19/p40)): 0.43 µM; EC50 (IL-23p19): 0.153 µM |
| 0.0329 | 0.0362 | O=C(Nc1cn(C2CN(CC(F)(F)F)C2)nc1-c1ccccn1)c1ccc(-c2cn[nH]c2)o1 [Compound I-97, TFA salt] | – |
| 0.0262 | 0.0689 | CCO[C@H]1C[C@@H](n2cc(NC(=O)c3ccc(-c4cn[nH]c4)o3)c(-c3ncccc3F)n2)C1 [Compound I-142, N-(1-((1s,3s)-3-ethoxycyclobutyl)-3-(3-fluoropyridin-2-yl)-1H-pyrazol-4-yl)-5-(1H-pyrazol-4-yl)furan-2-carboxamide formate] | – |
| – | 0.0723 | Cn1cc(NC(=O)c2ccc(-c3cn[nH]c3)o2)c(-c2ccccn2)n1 [Compound I-67, N-{1-Methyl-3-(pyridine-2-yl)-1H-pyrazol-4-yl}-5-(1H-pyrazol-4-yl)furan-2-carboxamide, formate salt] | EC50 (IL-23 (p19/p40); formate salt): 0.0041 µM |
| 0.112 | 0.13 | COc1ccc(-c2nn(C)cc2NC(=O)c2csc(-c3cn[nH]c3)n2)nc1 [II-58, N-(3-(5-methoxypyridin-2-yl)-1-methyl-1H-pyrazol-4-yl)-2-(1H-pyrazol-4-yl)thiazole-4-carboxamide] | – |
| 0.226 | 0.0648 | O=C(Nc1cn([C@H]2C[C@@H](OCC(F)(F)F)C2)nc1-c1cccc(F)n1)c1ccc(-c2cn[nH]c2)o1 [Compound I-150, N-(3-(6-fluoropyridin-2-yl)-1-((1s,3s)-3-(2,2,2-trifluoroethoxy)cyclobutyl)-1H-pyrazol-4-yl)-5-(1H-pyrazol-4-yl)furan-2-carboxamide formate] | – |
| 0.0144 | 0.0138 | CN(C)[C@H]1C[C@@H](n2cc(NC(=O)c3ccc(-c4cn[nH]c4)o3)c(-c3ccccn3)n2)C1 [Compound I-34, N-(1-((1s,3s)-3-(dimethylamino)cyclobutyl)-3-(pyridin-2-yl)-1H-pyrazol-4-yl)-5-(1H-pyrazol-4-yl)furan-2-carboxamide formate] | – |
| – | – | Cn1cc(NC(=O)c2csc(-c3cnn(COP(=O)(O)O)c3)n2)c(-c2ccccn2)n1 [II-36, Sodium (4-(4-((1-methyl-3-(pyridin-2-yl)-1H-pyrazol-4-yl)carbamoyl)thiazol-2-yl)-1H-pyrazol-1-yl)methyl phosphate] | EC50 (IL-23 (p19/p40); phosphate): 0.241 µM; EC50 (IL-23p19; phosphate): 0.165 µM |
| – | 0.144 | CCOCCn1cc(NC(=O)c2ccc(-c3cn[nH]c3)o2)c(-c2ccccn2)n1 [Compound I-37, N-(1-(2-ethoxyethyl)-3-(pyridin-2-yl)-1H-pyrazol-4-yl)-5-(1H-pyrazol-4-yl)furan-2-carboxamide formate] | EC50 (IL-23 (p19/p40); formate): 0.0174 µM |
| – | 0.0812 | CCO[C@@H]1CC[C@H](n2cc(NC(=O)c3ccc(-c4cn[nH]c4)o3)c(-c3ccccn3)n2)C1 [Compound I-132, N-(1-((1S,3R)-3-ethoxycyclopentyl)-3-(pyridin-2-yl)-1H-pyrazol-4-yl)-5-(1H-pyrazol-4-yl)furan-2-carboxamide formate] | EC50 (IL-23 (p19/p40); formate): 0.103 µM |
| 0.0218 | 0.0497 | CCO[C@H]1C[C@@H](n2cc(NC(=O)c3ccc(-c4cn[nH]c4)o3)c(-c3ccccn3)n2)C1 [Compound I-28, N-(1-((1,3-cis)-3-ethoxycyclobutyl)-3-(pyridin-2-yl)-1H-pyrazol-4-yl)-5-(1H-pyrazol-4-yl)furan-2-carboxamide] | – |
| 0.0343 | 0.0651 | O=C(Nc1cn(C2CCOCC2)nc1-c1nccs1)c1csc(-c2cn[nH]c2)n1 [II-111, 2-(1H-pyrazol-4-yl)-N-(1-(tetrahydro-2H-pyran-4-yl)-3-(thiazol-2-yl)-1H-pyrazol-4-yl)thiazole-4-carboxamide] | – |
| 10.7 | 1.22 | N#Cc1nn([C@H]2C[C@@H](O)C2)cc1NC(=O)c1csc(-c2cn[nH]c2)n1 [II-136, N-(3-cyano-1-((1s,3s)-3-hydroxycyclobutyl)-1H-pyrazol-4-yl)-2-(1H-pyrazol-4-yl)thiazole-4-carboxamide] | – |
| 10.4 | 4.8 | CCO[C@H]1C[C@@H](n2cc(NC(=O)c3csc(-c4cnn(C)c4)n3)c(-c3ccccn3)n2)C1 [II-13, N-(1-((1,3-cis)-3-ethoxycyclobutyl)-3-(pyridin-2-yl)-1H-pyrazol-4-yl)-2-(1-methyl-1H-pyrazol-4-yl)thiazole-4-carboxamide] | – |
| – | – | O=C(Nc1cn(C2C=C(F)C2)nc1-c1ccccn1)c1csc(-c2cn[nH]c2)n1 (centres unmarked) [II-133, N-(1-(3-fluorocyclobut-2-en-1-yl)-3-(pyridin-2-yl)-1H-pyrazol-4-yl)-2-(1H-pyrazol-4-yl)thiazole-4-carboxamide formate] | EC50 (IL-23 (p19/p40); formate): 1.52 µM; EC50 (IL-23p19; formate): 0.313 µM |
| 0.0708 | 0.0821 | CCO[C@H]1C[C@@H](n2cc(NC(=O)c3csc(-c4cn[nH]c4)n3)c(-c3nc(F)ccc3F)n2)C1 [II-174, N-(3-(3,6-difluoropyridin-2-yl)-1-((cis)-3-ethoxycyclobutyl)-1H-pyrazol-4-yl)-2-(1H-pyrazol-4-yl)thiazole-4-carboxamide] | – |

| Structure (SMILES) | EC50 (IL-23 (p19/p40); Homo sapiens, 18 h) [µM] | EC50 (IL-23p19; Homo sapiens, THP-1, 18 h) [µM] | further results |
| --- | --- | --- | --- |
| CCO[C@H]1C[C@@H](n2cc(NC(=O)c3csc(-c4cnn(COCC[Si](C)(C)C)c4F)n3)c(-c3ccccn3)n2)C1 [II-71, N-(1-((1s,3s)-3-ethoxycyclobutyl)-3-(pyridin-2-yl)-1H-pyrazol-4-yl)-2-(5-fluoro-1-((2-(trimethylsilyl)ethoxy)methyl)-1H-pyrazol-4-yl)thiazole-4-carboxamide] | 10.4 | 49.6 | – |

Source: patent publication US10208074B2, “Pyrazole compounds and method for making and using the compounds” (Rigel Pharmaceuticals, Inc., priority 2015, dated 2019)
